# Values quoted from earlier work, collected in patent US8986714B2, “Formulations, methods and procedures for reducing or preventing the development, or the risk of development, of neuropathology as a result of trauma” (Sapna Life Sciences Corporation, priority 2013, dated 2015).
# Legend:
# [1] = system: cat spinal dorsal horn neurons; details: noxious cutaneous stimulation and substance P
# [2] = system: rat model of neuropathic pain
# migraine attacks = details: human, in vivo
# [3] = system: chemotherapy-induced nausea and vomiting; details: in conjunction with another antiemetic drug
# [4] = system: immature mouse brain ischemia; details: treatment of acute seizures; measured four weeks later
# postherpetic neuralgia = details: combined with valacyclovir; six months later
# spinal cord ischemia = details: rabbits
# [5] = system: chronic post-surgical pain; details: perioperative administration; at two months or more after various types of surgery
# spinal cord compression = details: in vivo
# [6] = system: chronic spinal cord injury; details: stable chronic spinal cord injury patients
# [7] = system: amyotrophic lateral sclerosis
# [8] = system: chronic spinal cord injury; details: chronic spinal cord injury patients, first two weeks
# [9] = system: peripheral nerve crush injury; details: facial nerve and sciatic nerve injury models
# [10] = system: partial sciatic nerve ligation; details: compared to controls
# traumatic brain injury = details: approximately 80 patients treated within eight hours after traumatic brain injury
smiles,measurement,setting,value
"COc1ccccc1CN[C@H]1C2CCN(CC2)[C@H]1C(c1ccccc1)c1ccccc1 [CP-96,345]",responses of spinal dorsal horn neurons,[1],blocks responses of cat spinal dorsal horn neurons to noxious cutaneous stimulation and to substance P
same,recovery from peripheral nerve injury,[2]; animal model,promotes the recovery from peripheral nerve injury
COc1ccccc1[C@H](C)C(=O)N1C[C@@H]2[C@H](C1)C(c1ccccc1)(c1ccccc1)CC[C@@]2(O)c1ccccc1OC [RPR100893],treatment of migraine attacks,migraine attacks,not effective
C[C@@H](O[C@H]1OCCN(Cc2n[nH]c(=O)[nH]2)[C@H]1c1ccc(F)cc1)c1cc(C(F)(F)F)cc(C(F)(F)F)c1 [aprepitant],acute effects on chemotherapy-induced nausea and vomiting,[3],proved to be effective when administered in conjunction with another antiemetic drug
NCC1(CC(=O)O)CCCCC1 [gabapentin],brain atrophy,[4],beneficial effects on brain atrophy
same,rate of postherpetic neuralgia,postherpetic neuralgia,reduced
same,"outcomes of neuropathology, spinal cord ischemia",spinal cord ischemia,preventive effects
same,incidence of chronic post-surgical pain,[5],reducing the incidence of chronic post-surgical pain
same,"outcomes of neuropathology, spinal cord compression",spinal cord compression,preventive effects
O=C([O-])[O-].[Li+].[Li+] [lithium carbonate],effect on neurological symptoms,[6],without effect on neurological symptoms
same,mortality,"[7]; 22 patients, over 15 months",prevented death of 22 patients
same,motor deterioration,"[7]; 22 patients, over 15 months",only minimal motor deterioration
same,plasma levels,[7]; daily oral doses,400 to 800 µM
same,tolerability,[8],well tolerated over the first two weeks
[Cl-].[Li+] [lithium chloride],expression of myelin genes,[9],stimulate the expression of myelin genes
same,functional recovery,[9],accelerate functional recovery
same,myelin structure,[9],restore myelin structure
same,nociceptive scores in response to tactile and thermal stimuli,[10],reduced the nociceptive scores
CC(=O)[C@H]1CC[C@H]2[C@@H]3CCC4=CC(=O)CC[C@]4(C)[C@H]3CC[C@]12C [progesterone],neurological outcomes,traumatic brain injury,improved neurological outcomes
same,development of symptoms of peripheral nerve injury,"[2]; early administration, intraperitoneally",prevents the development of symptoms of peripheral nerve injury
same,"tactile hypersensitivity, late treatment","[2]; given for 11 days, starting on day 20, versus control group",no difference between this experimental group and the control group
same,tactile hypersensitivity by 30 days,"[2]; started one hour after model induction, daily for the subsequent 10 days",no tactile hypersensitivity
same,persistence of effect after treatment ended on day 10,[2]; study period ended at day 85,persisted to the end of the study period
